According to ChEMBL document CHEMBL3430912, “GSK Tres Cantos Anti-Kinetoplastid Screening (TCAKS) Data”:

How the values were obtained:
NIH3T3 = test: GSK_TCAKS: pIC50 NIH 3T3 cell line viability assay using luminiscence. Tissue culture surface treated assay plates (1536-well) were used. […] The 100% cells survival control was determined exposing the host-cells to a 0.5% DMSO concentration, whereas the 100% toxicity control was achieved by seeding the cells in presence of Amphotericin B at 50uM. Plates were incubated for four days at 37C, 5% CO2. The assay readout was developed by addition of 5uL of CellTiter-Glo Reagent following the manufacturer's instructions. Luminiscence was measured using a ViewLux.; type: functional, cell-based; settings: Mus musculus, NIH3T3, 96 h
Trypanosoma cruzi [1] = test: (§1) GSK_TCAKS: pIC50 Trypanosoma cruzi Imaging: Infected Cells. […] Cells were then washed once with PBS before infection. T. cruzi trypomastigotes, collected at days 5 to 8 after infection from LLC-MK2 parasite infected cultures, were allowed to swim out for 4h at 37C from a centrifuged pellet (2,500 rpm/10 min/room temperature). Trypomastigotes were then collected and counted in a CASY Cell Counter. Trypomastigotes, in supplemented DMEM, were added to H9c2 cultures in a multiplicity of infection of 1 and incubated for 18 h. Cells were washed once with PBS before incubation of the infected H9c2 monolayer with trypsin (Life-Technologies) to detach cells from the flask. Cells were counted in a CASY Cell Counter using a 150 um capillary and their density set at 5 * 10^4 cells per mL in supplemented assay DMEM. Infected H9c2 were dispensed into 384-well poly-lysine coated assay plates at 50uL per well using a Multidrop Combi dispenser. After seeding them, the plates were incubated at 37C, 5% CO2 for 72h. Cultures were then fixed and stained by addition of 50 uL of a solution containing 8% formaldehyde and 4 uM DRAQ5 DNA dye (BioStatus, UK) per well. […] Five images were collected per well for reliable statistical analysis. Automated image analysis was performed with a script developed on Acapella High Content Imaging and Analysis Software (PerkinElmer). Output: percentage of infected cells per well as a second infection marker.; type: functional, organism-based, Rattus norvegicus; settings: H9c2, 4 h
Trypanosoma cruzi [2] = test: GSK_TCAKS: pIC50 Trypanosoma cruzi Imaging: Amastigotes/Cell. […] Cells were then washed once with PBS before infection. T. cruzi trypomastigotes, collected at days 5 to 8 after infection from LLC-MK2 parasite infected cultures, were allowed to swim out for 4h at 37C from a centrifuged pellet (2,500 rpm/10 min/room temperature). Trypomastigotes were then collected and counted in a CASY Cell Counter. Trypomastigotes, in supplemented DMEM, were added to H9c2 cultures in a multiplicity of infection of 1 and incubated for 18 h. Cells were washed once with PBS before incubation of the infected H9c2 monolayer with trypsin (Life-Technologies) to detach cells from the flask. Cells were counted in a CASY Cell Counter using a 150 um capillary and their density set at 5 * 10^4 cells per mL in supplemented assay DMEM. Infected H9c2 were dispensed into 384-well poly-lysine coated assay plates at 50uL per well using a Multidrop Combi dispenser. After seeding them, the plates were incubated at 37C, 5% CO2 for 72h. Cultures were then fixed and stained by addition of 50 uL of a solution containing 8% formaldehyde and 4 uM DRAQ5 DNA dye (BioStatus, UK) per well. […] Five images were collected per well for reliable statistical analysis. Automated image analysis was performed with a script developed on Acapella High Content Imaging and Analysis Software (PerkinElmer). Output: number of amastigotes per cell as infection level measurement.; type: functional, organism-based, Rattus norvegicus; settings: H9c2, 4 h
Leishmania donovani [3] = test: (§2) GSK_TCAKS: pIC50 Leishmania donovani Imaging: Amastigotes/Macrophages. Assay plates (384-well) were prepared by adding 250nL of compound to each well. For single shot assay, the final compound concentration was 5 uM. […] Automated image analysis was performed with a script developed on Acapella High Content Imaging and Analysis Software (PerkinElmer). Output: Average number of amastigotes per macrophage cell were reported for each well.; type: functional, organism-based, Homo sapiens; settings: THP-1
Trypanosoma cruzi [4] = test: GSK_TCAKS: pIC50 Trypanosoma cruzi viability assay using beta-GAL activity. This assay was run at single shot at 5uM compound concentration per well. The biological reagents consisted of NIH-3T3 host cells and trypomastigotes parasitic cells; both cell types were set to a 3.3 * 10^5 cells/mL dilution in assay DMEM by means of a CASY cell counter device using a 60um capillary. 6 uL of the mixture were dispensed per well (about 1 * 10^3 host-cells and 1 * 10^3 parasites) with a Multidrop Combi dispenser. […] In all wells, the percentage of DMSO never exceeded 0.5%. Plates incubated for four days at 37C, 5% CO2. The substrate used for the assay fluorescence intensity (FLINT) readout was resorufin-beta-D-galactopiranoside (Sigma-Aldrich) at 5uM per well. It was diluted in PBS supplemented with the soft detergent Igepal (Fluka).; type: functional, organism-based, Mus musculus; settings: Tulahuen, NIH3T3
Leishmania donovani [5] = test: as §2, with “THP-1 Host Macrophages.” for “Amastigotes/Macrophages.”, “THP-1” for “Average number of amastigotes per macrophage”, “cell count” for “cell”; type: functional, organism-based, Homo sapiens
Leishmania donovani [6] = test: as §2, with “Infected Macrophages.” for “Amastigotes/Macrophages.”, “Percent” for “Average number”, “infected” for “amastigotes per”, “cells” for “cell”; type: functional, organism-based, Homo sapiens; settings: THP-1
[7] = biological target: Sterol 14-alpha demethylase (Trypanosoma cruzi (strain CL Brener), UniProt Q7Z1V1); test: GSK_TCAKS: pIC50 CYP51 from Trypanosoma cruzi.; type: functional
[8] = test system: Trypanosoma brucei brucei; test: GSK_TCAKS: pIC50 Trypanosoma brucei viability assay using fluorescence intensity. Assay plates (1536-well) were prepared by dispensing 25nL of compound solution per well using an Echo acoustic dispenser (Labcyte).; type: functional, organism-based; settings: Lister 427, 2 h
Leishmania donovani [9] = test: GSK_TCAKS: pIC50 Leishmania donovani viability assay using fluorescence intensity. Assay plates (1536-well) were prepared by adding 30nL per well of compound. For single shot assay, the final compound concentration was 5uM. […] Briefly, eGFP LdBOB axenic amastigotes were harvested, fixed and counted in a CASY cell counter (Roche-Applied Science). A final concentration of 1.5 * 10^5 cells per well were prepared in amastigote media containing 500 U/mL penicillin/streptomycin (Invitrogen) and 6uL was dispensed to each experimental well using a Multidrop Combi dispenser (Thermo Scientific). 6uL of assay media was dispensed to control columns used as reference for 100% compound response. Following incubation for 72 h at 37C, 5% CO2, 2 uL of resazurin was added to each well at a final concentration of 0.5 mM in phosphate buffered saline (PBS) with IGEPAL (Sigma-Aldrich), 0.05% (v/v).; type: functional, organism-based
[10] = GSK_TCAKS: pIC50 HepG2 human cell line viability assay using luminiscence. […] Seeding density was checked to ensure that new mono-layers were not more than 50% confluent at the time of harvesting. Cell suspension was added to 500 mL of the same medium at a final density of 1.2 * 10^5 cells/mL. This cell suspension was dispensed (25 uL, 3000 cells per well) into 384-well clear-bottom plates using a Multidrop Combi dispenser. Prior to addition of the cell suspension, the screening compounds (250 nL) were pre-dispensed into the plates with an Echo liquid handler. Plates were incubated for 48 h at 37C, 5% CO2. After incubation, plates equilibrated at room temperature for 30 min before proceeding to develop the luminescent signal. The signal developer, CellTiter-Glo Reagent, was allowed to equilibrate at room temperature for 30 min and added to the plates (25uL per well) using a Multidrop Combi dispenser. Plates were left for 10 min at room temperature for stabilization and then read using a ViewLux.; type: toxicity, cell-based
Trypanosoma cruzi [11] = test: as §1, with “H2C9” for “Trypanosoma cruzi”, “H9c2 Host Cardiomyocytes.” for “Infected Cells.”, “Number” for “percentage”, “H9c2 Host Cardiomyocytes nuclei to determine drug-related cytotoxicity.” for “infected cells per well as a second infection marker.”; type: functional, organism-based, Rattus norvegicus; settings: H9c2, 4 h
[12] = test system: Trypanosoma brucei brucei; test: GSK_TCAKS: pIC50 Trypanosoma brucei viability assay using luminiscence. Assay plates (1536-well) were prepared. T. brucei cultures were harvested and counted in a CASY cell counter. A parasite suspension was prepared at a final concentration of 5 * 10^4 cells/mL in complete HMI9 medium and 6uL was dispensed to all wells containing compounds using a Multidrop Combi dispenser. 6uL of HMI9 media with 0.4% DMSO were dispensed to control columns. Plates were incubated for 24 h at 37C, 5% CO2 then tempered for 10 min at room temperature. ATP content was quantified by adding 4 uL of CellTiter-Glo Reagent (Promega) according to the manufacturer's instructions. Luminescence was measured using a ViewLux.; type: functional, organism-based; settings: Lister 427, CASY

Sequence of Sterol 14-alpha demethylase (Q7Z1V1 whole entry): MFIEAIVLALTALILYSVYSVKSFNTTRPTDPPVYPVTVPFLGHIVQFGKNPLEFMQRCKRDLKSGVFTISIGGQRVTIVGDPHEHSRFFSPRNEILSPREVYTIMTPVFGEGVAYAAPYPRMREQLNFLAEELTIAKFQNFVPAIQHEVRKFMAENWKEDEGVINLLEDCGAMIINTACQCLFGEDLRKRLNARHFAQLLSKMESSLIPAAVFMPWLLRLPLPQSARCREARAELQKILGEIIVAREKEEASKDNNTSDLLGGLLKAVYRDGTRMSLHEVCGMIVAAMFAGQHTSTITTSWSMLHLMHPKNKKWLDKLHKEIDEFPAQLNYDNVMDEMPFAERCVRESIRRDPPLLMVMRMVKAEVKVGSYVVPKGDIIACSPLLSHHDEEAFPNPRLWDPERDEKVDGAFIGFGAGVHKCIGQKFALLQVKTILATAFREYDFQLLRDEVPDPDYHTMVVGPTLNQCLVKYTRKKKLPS

Structure (SMILES)	IC50 (NIH3T3)	IC50 (Trypanosoma cruzi [1])	IC50 (Trypanosoma cruzi [2])	IC50 (Leishmania donovani [3])	IC50 (Trypanosoma cruzi [4])	IC50 (Leishmania donovani [5])	IC50 (Leishmania donovani [6])	IC50 [7]	IC50 [8]	IC50 (Leishmania donovani [9])	IC50 at 48 h [10]	IC50 (Trypanosoma cruzi [11])	IC50 [12]
c1cncc(CN(Cc2ccco2)Cc2c[nH]nc2-c2cccs2)c1	31.6 µM	0.0501 µM	0.0398 µM	1.26 µM	0.02 µM	20 µM	> 50.1 µM	0.0794 µM	25.1 µM	31.6 µM	> 100 µM	> 50.1 µM	–
Cn1cncc1CN1CCC2(CC1)COC(Cc1ccccc1)C2 (stereo not drawn)	25.1 µM	0.501 µM	0.316 µM	–	0.316 µM	> 50.1 µM	> 50.1 µM	1 µM	> 39.8 µM	12.6 µM	> 100 µM	> 50.1 µM	> 39.8 µM
CC(C)Oc1ccc(C(=O)Nc2ccc(N3CCOCC3)c(Cl)c2)cc1	10 µM	1.26 µM	1.26 µM	3.16 µM	1.58 µM	> 50.1 µM	> 50.1 µM	> 100 µM	12.6 µM	> 50.1 µM	31.6 µM	> 50.1 µM	–
CCCCNc1nccc(-c2c(-c3ccc(F)cc3)nn3c(N4CCOCC4)cccc23)n1	10 µM	3.16 µM	1 µM	> 50.1 µM	0.398 µM	12.6 µM	6.31 µM	> 100 µM	10 µM	> 50.1 µM	> 100 µM	> 50.1 µM	–
CN(C)CCOc1ccc(N2CCN(S(=O)(=O)c3ccc(Cl)cc3)CC2)cc1	15.8 µM	0.631 µM	0.501 µM	31.6 µM	0.631 µM	> 50.1 µM	31.6 µM	–	20 µM	39.8 µM	50.1 µM	> 50.1 µM	25.1 µM
CC1(C)CCC(=Cc2ccc(Cl)cc2)CC1(O)Cn1ccnc1 (stereo not drawn)	15.8 µM	0.00794 µM	0.00501 µM	2 µM	0.00631 µM	12.6 µM	7.94 µM	0.0501 µM	10 µM	2.51 µM	50.1 µM	31.6 µM	25.1 µM
O=C(NCC1CCCCC1)c1cc(=O)c2ccccc2o1	31.6 µM	0.631 µM	0.501 µM	6.31 µM	0.447 µM	> 50.1 µM	15.8 µM	> 100 µM	1 µM	5.01 µM	25.1 µM	31.6 µM	1.26 µM
Nc1ncnc2c1ncn2[C@@H]1O[C@H](CO)C[C@H]1O [CORDYCEPIN]	> 50.1 µM	2 µM	1.26 µM	> 50.1 µM	1.12 µM	> 50.1 µM	> 50.1 µM	> 100 µM	0.0126 µM	> 50.1 µM	> 100 µM	–	0.01 µM
